Reference: article PMC7932555, “A diffusible signal factor of the intestine dictates Salmonella invasion through its direct control of the virulence activator HilD” (PLoS Pathogens, 2021)
Changes are numbered by the printed parent chain. Several values for one entry are separate records, joined by “and”; a condition that tells them apart may be missing. Equal entries are not always repeated.

Key:
sipB::lacZY = sipB::lacZY reporter β-galactosidase assay in strains expressing wild type or mutant HilD; type: cell-based; settings: 20 μM fatty acid (mix: 20 μM of each)
Source text: To test the effect of mutations in hilD, we initially constructed a background Salmonella strain without chromosomal hilC, rtsA and hilD and fused sipB to lacZY to assess SPI-1 expression. hilD with a C-terminal 3XFLAG tag was cloned into pWSK29 under control of the tetRA promoter for tetracycline-inducible expression. This plasmid was subjected to site-directed mutagenesis at specific nucleotides to change selected amino acids to alanine, using the Agilent QuikChange II Site-Directed Mutagenesis kit following their protocol. Mutations were confirmed by DNA sequencing.
Salmonella strains were inoculated into LB buffered with 100 mM MOPS [3-(N-morpholino) propanesulphonic acid] pH 6.7, with necessary antibiotics, and fatty acids or control solvents to be tested. Cultures were incubated at 37° C without aeration overnight, and assays were performed using an established protocol.

wild type HilD = molecular target: T1, wild type HilD (Salmonella typhimurium, UniProt P0CL08); test: EMSA of hilA promoter DNA with wild type HilD; type: biochemical; settings: wild type HilD 150 nM; 10 nM hilA promoter DNA; increasing concentrations or 30 μM fatty acid
T1 construct: made in house; host or cells: E. coli BL21 (DE3)
T1 sequence (P0CL08 1-309): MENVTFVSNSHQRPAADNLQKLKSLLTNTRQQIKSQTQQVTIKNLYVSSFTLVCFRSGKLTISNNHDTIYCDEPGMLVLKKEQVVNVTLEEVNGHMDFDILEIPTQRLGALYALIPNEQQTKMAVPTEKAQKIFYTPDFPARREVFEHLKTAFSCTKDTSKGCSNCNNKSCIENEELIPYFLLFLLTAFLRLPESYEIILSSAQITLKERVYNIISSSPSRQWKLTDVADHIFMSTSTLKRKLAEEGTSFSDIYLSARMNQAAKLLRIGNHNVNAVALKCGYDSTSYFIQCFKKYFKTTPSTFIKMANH
Experimental: (§1) These were performed as previously described. Briefly, 10 nM hilA promoter DNA (-286 to +31) was mixed with 150 nM HilD in a binding buffer (100 mM Tris pH 7.5, 10 mM EDTA, 1M KCl, 1 mM DTT, 50% v/v glycerol). Fatty acids or control solvents were added at various concentrations. Binding reaction was performed at room temperature for 1 hour. Dye solution was added to final concentration of 1X and samples were separated on 10% acrylamide gels. DNA was stained using SYBR Safe and visualized in BioRad GelDoc imaging system.

HilD^Q290A [1] = molecular target: T2, HilD^Q290A (Salmonella typhimurium, UniProt P0CL08, Q290A); test: ELISA binding of fatty acid to HilD Q290A
T2 construct: made in house; host or cells: E. coli BL21 (DE3)
T2 sequence (P0CL08 1-309 Q290A): T1 sequence (P0CL08 1-309) with Q290A
Experimental: (§2) hilD or its mutated sequences were amplified and cloned into pET15b(+) under an N-terminal 6xHis tag. The constructs were transformed into E. coli BL21 (DE3) for expression. Transformants were induced with 5 mM IPTG for 4 hours. Cultures were centrifuged, lysed and treated with TALON beads as described above. Bound protein was eluted by applying 1 ml elution buffer to the columns. Elution was confirmed by SDS-PAGE. Following confirmation, eluted samples were dialyzed overnight in dialysis buffer (50 mM sodium phosphate, 300 mM NaCl, 10% glycerol). Protein concentration and quality were assessed by Bradford estimation and SDS-PAGE.
(§3) 96-well polystyrene plates were coated with 10 μM fatty acid in coating buffer (0.05 M sodium carbonate-bicarbonate, pH 9.3) and incubated overnight at 4°C. Wells were washed three times with PBS, followed by addition of blocking buffer (1% Ficoll 400 in PBS). After blocking, wells were washed three times with PBS, and different concentrations of proteins in blocking buffer were added and incubated at room temperature for 2 hours. […] After color development, reaction was stopped with 1N sulfuric acid and read spectrophotometrically at 490 nm. Binding was analyzed in GraphPad Prism.
(§4) All experiments were repeated twice and data of representative experiment have been shown. Kd was calculated by using Total One-Site binding in GraphPad Prism. […]

HilD^N44A [2] = molecular target: T3, HilD^N44A (Salmonella typhimurium, UniProt P0CL08, N44A); test: EMSA of hilA promoter DNA with HilD N44A; type: biochemical; settings: 10 nM hilA promoter DNA, 30 μM fatty acid
T3 construct: made in house; host or cells: E. coli BL21 (DE3)
T3 sequence (P0CL08 1-309 N44A): T1 sequence (P0CL08 1-309) with N44A
Experimental: as §1

HilD^N44A [3] = molecular target: T3, HilD^N44A; test: ELISA binding of fatty acid to HilD N44A
Experimental: as §2, §3, §4

HilD^Q290A [4] = molecular target: T2, HilD^Q290A; test: EMSA of hilA promoter DNA with HilD Q290A; type: biochemical; settings: 10 nM hilA promoter DNA, 30 μM fatty acid
Experimental: as §1

[5] = strain expressing wild type HilD

SMILES	repression of sipB expression (sipB::lacZY; strain expressing HilD K43A)	repression of sipB expression (sipB::lacZY; strain expressing HilD K293A)	repression of sipB expression (sipB::lacZY; strain expressing HilD K294A)	repression of sipB expression (sipB::lacZY; strain expressing HilD Q290A)	repression of sipB expression (sipB::lacZY; [5])	effect on HilD binding to hilA promoter DNA (wild type HilD)	Kd (HilD^Q290A [1]; plates pre-adsorbed with 10 μM fatty acid) [µM]	effect on HilD binding to hilA promoter DNA (HilD^N44A [2])	binding in ELISA (in words) (HilD^N44A [3])	binding in ELISA (in words) (HilD^Q290A [1])	effect on HilD binding to hilA promoter DNA (HilD^Q290A [4])
CCCCCCCCCCCCC/C=C\C(=O)O [c2-HDA, cis-2-hexadecenoic acid]	Repression by c2-HDA, however, remained unaffected	No significant repression	No significant repression	Repression by c2-HDA, however, remained unaffected	~11 fold and 10.9 fold	progressively impaired interaction of wild type HilD with the DNA target	9.7	retained its binding of target DNA	essentially no binding		
CCCCCCCCCCCCC/C=C/C(=O)O [t2-HDA, trans-2-hexadecenoic acid]					5.2 fold	efficiently reduced the DNA binding capacity		did not disrupt DNA binding	essentially no binding	failed to bind	did not disrupt DNA binding
